Test results reported in paper PMC2173257 (The Journal of Cell Biology, 2002).

How the values were obtained:
[1] = target: Kes1p^LH201/202FN (Saccharomyces cerevisiae, UniProt P35844, L201F/H202N); assay: competitive displacement of photo-probe from purified mutant protein; format: binding
[2] = target: Kes1p (Saccharomyces cerevisiae, UniProt P35844); assay: competitive displacement of [3H]BZDC-PI; format: binding

## PI(4,5)P2
[1]
  IC50: 6.1 µM
[2]
  IC50: 1900 nM
